Patent US9789096B2, “Methods and compositions for selective and targeted cancer therapy” (Board of Regents of the University of Texas System, priority 2013, dated 2017)
Like-named read-outs stand apart in the source and are kept apart here.

Key:
Assay type in all cases: cell-based, human
H2122 = assay: Cell viability dose-response, H2122; details: for AC50: 12-point dose-response starting at 50 micromolar
Procedure, shortened: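 Cells plated at 15% confluence in RPMI-1640 with 5% FBS and 2 mM L-glutamine, treated with compound in a 12-point, 3-fold dilution series from 50 micromolar, in duplicate. ATP measured by Cell Titer Glo after 4 days; IC50 taken from the dose-response curve.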

H2009 = assay: Cell viability dose-response, H2009; details: for IC50: NCI-H2009
Procedure: (§1) FIG. 6A. […] Cell viability is plotted vs. compound concentration. Compound was added to cells plated at 15% confluence in 96-well plates in RPMI-1640 media supplemented with 5% Fetal Bovine Serum and 2 mM L-Glutamine. After 4 days of incubation, ATP levels were measured using Cell Titer Glo (Promega). Data are presented as the average of 2 replicates ±SEM.
(§2) Selectivity may be measured by the half maximal inhibitory concentration (IC50), which, as used herein, is a measure of the effectiveness of a compound in killing cells. This quantitative measure indicates how much of a particular compound is needed to kill a particular cell population by half (e.g., as indicated by the amount of ATP). […] The IC50 can be determined by constructing a dose-response curve. The lower the IC50, the higher the potency, and the greater the difference between IC50 values for different cell lines (e.g., sensitive lines vs. insensitive lines, and sensitive lines vs. normal lines) the greater the selectivity. […]
(§3) With this information, we synthesized and tested a series of small molecules derived in conception from the oxalamide and chromone scaffold including N-acyl ureas, as shown in Tables 6-8. Each compound was tested in a 12-point dose-response study starting at 50 micromolar and decreasing in 3-fold increments to sub-nanomolar concentrations, in duplicate. Additionally, one or more additional cell line was tested in the same way.

HCC44 = assay: Cell viability dose-response, HCC44; details: for AC50: 12-point dose-response starting at 50 micromolar
Procedure: as §1, §2, §3

[1] = Homo sapiens, NCI-H2122, Table 8
[2] = Homo sapiens, NCI-H2009, Table 8, 12-point dose-response starting at 50 micromolar
[3] = Homo sapiens, NCI-H2122, 12-point dose-response starting at 50 micromolar, 3-fold increments, in duplicate, read-out: toxicity data, H2122
[4] = Homo sapiens, 12-point dose-response starting at 50 micromolar, 3-fold increments, in duplicate, read-out: toxicity data, H2009
[5] = Homo sapiens, HCC44, 12-point dose-response starting at 50 micromolar, 3-fold increments, in duplicate, read-out: toxicity data, HCC44
[6] = Homo sapiens, NCI-H2122, Table 9, competitor, read-out: IC50 to H2122 cells

COc1ccc(-c2coc3cc(OCc4cnn(-c5ccccc5)c4)ccc3c2=O)cc1 [SW208759-1]
AC50 (H2122; [1]): ≥ 49.5 µM | AC50 (H2009; [2]): 49.5 µM | AC50 (HCC44; Homo sapiens, HCC44, Table 8): 49.5 µM

COc1cccc(C(=O)c2ccc(C(=O)NC(=O)NCCc3ccc(O)cc3)cc2)c1 [SW208579-1-A]
IC50 (H2122; [3]): 0.82 µM | IC50 (H2009; [4]): 0.42 µM | IC50 (HCC44; [5]): 0.46 µM

COc1ccc(CNC(=O)c2ccc(Cl)cc2)cc1 [SW208464-1-A]
IC50 (H2122; [3]): ≥ 49.5 µM | IC50 (H2009; [4]): ≥ 49.5 µM | IC50 (HCC44; [5]): ≥ 49.5 µM

O=C(Nc1ncc(Cc2ccccc2)s1)c1ccc(C(=O)c2ccccc2)cc1 [SW208834]
IC50 (H2122; Homo sapiens, NCI-H2122, Tables 3 and 4, read-out: IC50 (uM) vs indicated non-small cell lung cancer cell line H2122): 3.55 µM | IC50 (H2009; Homo sapiens, Tables 3 and 4, read-out: IC50 (uM) vs indicated non-small cell lung cancer cell line H2009): 16.5 µM | IC50 (HCC44; Homo sapiens, HCC44, Tables 3 and 4, read-out: IC50 (uM) vs indicated non-small cell lung cancer cell line HCC44): 49.5 µM

COc1ccc(CCNC(=O)NC(=O)c2ccc(C(=O)NC3CCCC3)cc2)cc1 [SW208454-1-A]
IC50 (H2122; [3]): 0.939 µM | IC50 (H2009; [4]): ≥ 49.5 µM | IC50 (HCC44; [5]): ≥ 49.5 µM

COc1ccc(CCNC(=O)NC(=O)c2ccc(C(=O)Nc3ccccc3OC)cc2)cc1 [SW208409-1-A]
IC50 (H2122; [3]): 0.14 µM | IC50 (H2009; [4]): ≥ 49.5 µM | IC50 (HCC44; [5]): ≥ 49.5 µM

O=c1c(Cc2ccccc2)coc2cc(OCc3cnn(-c4ccccc4)c3)ccc12 [SW208769-1]
AC50 (H2122; [1]): 0.027 µM | AC50 (H2009; [2]): 49.5 µM | AC50 (HCC44; Homo sapiens, HCC44, Table 8): 3.18 µM

COc1ccc(CCNC(=O)NC(=O)c2cccc(-c3cccc(Cl)c3)c2)cc1 [SW208392-1-A]
IC50 (H2122; [3]): 6.71 µM | IC50 (H2009; [4]): ≥ 49.5 µM | IC50 (HCC44; [5]): ≥ 49.5 µM

COc1ccc(CCNC(=O)NC(=O)c2ccc(-c3cc4ccccc4c4ccccc34)cc2)cc1 [SW208391-1-A]
IC50 (H2122; [3]): ≥ 49.5 µM | IC50 (H2009; [4]): 7.16 µM | IC50 (HCC44; [5]): ≥ 49.5 µM

O=C(NCCc1ccc(O)cc1)NC(=O)c1ccc(C(=O)c2ccccc2)cc1 [SW208459-1-A]
IC50 (H2122; [3]): 0.097 µM | IC50 (H2122; [6]): 0.0377 µM | IC50 (H2009; [4]): 0.299 µM | IC50 (HCC44; [5]): 0.073 µM

O=c1c(-c2ccc(O)cc2)coc2cc(OCc3cnn(-c4ccccc4)c3)ccc12 [SW208757-1]
AC50 (H2122; [1]): ≥ 49.5 µM | AC50 (H2009; [2]): 5.63 µM | AC50 (HCC44; Homo sapiens, HCC44, Table 8): 49.5 µM

COc1ccc(CCNC(=O)NC(=O)c2cccc(-c3ccncc3)c2)cc1 [SW208396-1-A]
IC50 (H2122; [3]): 2.23 µM | IC50 (H2009; [4]): 4.95 µM | IC50 (HCC44; [5]): ≥ 49.5 µM

O=c1c(C#Cc2ccccc2)coc2cc(OCc3cnn(-c4ccccc4)c3)ccc12 [SW208768-1]
AC50 (H2122; [1]): 24.8 µM | AC50 (H2009; [2]): 19.9 µM | AC50 (HCC44; Homo sapiens, HCC44, Table 8): 16.5 µM

c1ccc(-n2cc(COc3ccc4cc(OCc5cnn(-c6ccccc6)c5)ccc4c3)cn2)cc1 [SW 208630-1]
AC50 (H2122; [1]): ≥ 49.5 µM | AC50 (H2009; [2]): 49.5 µM | AC50 (HCC44; Homo sapiens, HCC44, Table 8): 49.5 µM

COc1ccc(CCCC(=O)Nc2ccc(C(=O)c3ccccc3)cc2)cc1 [SW208470-1-A]
IC50 (H2122; [3]): ≥ 49.5 µM | IC50 (H2009; [4]): 34.4 µM | IC50 (HCC44; [5]): 34.8 µM

COc1ccc(CCNC(=O)NC(=O)c2ccc(Nc3ccccc3)cc2)cc1 [SW208561-1-A]
IC50 (H2122; [3]): 0.08 µM | IC50 (H2122; [6]): 0.0763 µM | IC50 (H2009; [4]): 0.88 µM | IC50 (HCC44; [5]): 0.03 µM

Cc1oc2cc(OCc3cnn(-c4ccccc4)c3)ccc2c(=O)c1Oc1ccccc1F [SW 208587-1]
AC50 (H2122; [1]): 0.39 µM | AC50 (H2009; [2]): 16.5 µM | AC50 (HCC44; Homo sapiens, HCC44, Table 8): 49.5 µM

COc1ccc(CCNC(=O)NC(=O)c2cccc(-c3ccccc3)c2)cc1 [SW208394-1-A]
IC50 (H2122; [3]): ≥ 49.5 µM | IC50 (H2009; [4]): ≥ 49.5 µM | IC50 (HCC44; [5]): ≥ 49.5 µM

COc1ccc(CCNC(=O)NC(=O)c2cccc(Cl)c2)cc1 [SW208400-1-A]
IC50 (H2122; [3]): ≥ 49.5 µM | IC50 (H2009; [4]): ≥ 49.5 µM | IC50 (HCC44; [5]): ≥ 49.5 µM

O=c1c(Oc2ccccc2F)coc2cc(OCc3cnn(-c4ccccc4)c3)ccc12 [SW043139-2-A]
AC50 (H2122; Table 8): 0.292 µM | AC50 (H2009; Table 8, 12-point dose-response starting at 50 micromolar): 15.9 µM | AC50 (HCC44; Table 8): 49.5 µM

COc1ccc(CCNC(=O)NC(=O)c2ccc(C(=O)NC3CC3)cc2)cc1 [SW208452-1-A]
IC50 (H2122; [3]): ≥ 49.5 µM | IC50 (H2009; [4]): 13.1 µM | IC50 (HCC44; [5]): ≥ 49.5 µM

COc1ccc(CCNC(=O)NC(=O)c2ccc(-c3ccccc3)cc2)cc1 [SW208393-1-A]
IC50 (H2122; [3]): 0.17 µM | IC50 (H2122; [6]): 0.115 µM | IC50 (H2009; [4]): ≥ 49.5 µM | IC50 (HCC44; [5]): ≥ 49.5 µM

O=c1c(-c2cc(C(F)(F)F)cc(C(F)(F)F)c2)coc2cc(OCc3cnn(-c4ccccc4)c3)ccc12 [SW208763-1]
AC50 (H2122; [1]): 0.08 µM | AC50 (H2009; [2]): 3.26 µM | AC50 (HCC44; Homo sapiens, HCC44, Table 8): 1.36 µM

COc1ccc(CCNC(=O)NC(=O)c2ccc(Br)cc2)cc1 [SW208388-1-A]
IC50 (H2122; [3]): 0.16 µM | IC50 (H2009; [4]): ≥ 49.5 µM | IC50 (HCC44; [5]): 0.42 µM
